Test results from patent US8097440B1, “Engineered microorganisms capable of producing target compounds under anaerobic conditions” (Gevo, Inc., priority 2008, dated 2012).
Substitutions are numbered along the chain they refer to.

Experiments:
[1] = molecular target: T1, E. coli KARI Ec_IlvC variant Ec_IlvC^Q110V-his6 (Q110V), SEQ ID NO: 23 (Escherichia coli, UniProt P05793, Q110V); experiment: KARI cuvette assay, purified Ec_IlvC^Q110V-his6; format: biochemical; settings: relative to Ec_IlvC^his6 with NADPH
T1 sequence (P05793 with tags, fused parts or gaps Q110V): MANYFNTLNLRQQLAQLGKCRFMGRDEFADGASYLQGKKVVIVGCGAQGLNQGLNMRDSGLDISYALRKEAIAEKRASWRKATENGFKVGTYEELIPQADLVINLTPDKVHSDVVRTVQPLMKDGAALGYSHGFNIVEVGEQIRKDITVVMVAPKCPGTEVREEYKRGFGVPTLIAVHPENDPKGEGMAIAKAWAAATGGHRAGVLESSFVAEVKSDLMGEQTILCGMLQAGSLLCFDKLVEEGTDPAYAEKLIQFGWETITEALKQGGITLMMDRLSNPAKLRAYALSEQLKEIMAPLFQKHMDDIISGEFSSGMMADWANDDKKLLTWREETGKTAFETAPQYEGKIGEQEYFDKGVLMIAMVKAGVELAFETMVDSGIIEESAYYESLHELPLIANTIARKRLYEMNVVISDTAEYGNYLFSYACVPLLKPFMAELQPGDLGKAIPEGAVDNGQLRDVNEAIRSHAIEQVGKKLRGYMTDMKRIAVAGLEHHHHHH
Description: (§1) KARI cuvette assay: KARI activity was assayed kinetically by monitoring the decrease in NAD(P)H concentration by measuring the absorbance at 340 nm. A reaction buffer was prepared containing 250 mM potassium phosphate pH 7, 1 mM DTT and 10 mM MgCl2. Cell pellets were resuspended (0.25 g wet weight/mL buffer) in 250 mM potassium phosphate (KPi) buffer containing 1 mM DTT and 10 mM MgCl2. The resuspended cells were lysed by sonication for 1 min with a 50% duty cycle and pelleted at 11000×g and 4° C. for 15 min. A reaction mixture consisting of 910 μl reaction buffer, 50 μl acetolactate, and 20 μl lysate was prepared in a cuvette. The reaction was initiated by addition of 20 μL of 10 mM NAD(P)H. A substrate free control was conducted using reaction buffer without the addition of acetolactate.
Purification of KARI: Cell pellets used for purification were resuspended in purification buffer A (20 mM Tris, 20 mM imidazol, 100 mM NaCl, 10 mM MgCl2, pH 7.4). KARI was purified by IMAC (Immobilized metal affinity chromatography) over a 1 ml Histrap High Performance (histrap HP) column pre-charged with Nickel (GE Healthcare) using an Akta FPLC system (GE Healthcare). […]

[2] = molecular target: T2, E. coli KARI Ec_IlvC variant Ec_IlvC^6E6-his6 (A71S, R76D, S78D, Q110V), SEQ ID NO: 34 (Escherichia coli, UniProt P05793, A71S/Q110V/R76D/S78D); experiment: KARI assay, purified Ec_IlvC^6E6-his6; format: biochemical
T2 construct: T37 values cited for the gene on pGV1975
T2 sequence (P05793 with tags, fused parts or gaps A71S/R76D/S78D/Q110V): T1 sequence (P05793 with tags, fused parts or gaps Q110V) with A71S, R76D, S78D
Description: as §1, with “The reaction was initiated by addition of 20 μL of 10 mM NAD(P)H. A substrate free control was conducted using reaction buffer without the addition of acetolactate.” left out
Only 20% of the enzymes of the recombination library were active on NADH. After screening 1,000 clones using the NADH depletion assay at 340 nm, 26 KARI variants were selected for a rescreen by the high-throughput assay described in Example 14 and eight thereof were expressed in 25 ml LBamp medium in shake flasks according to the protocol for cell growth and protein expression in shake flasks as described in Example 14, purified according to the protocol for purification of KARI enzymes as described in Example 14, and NAD(P)H depletion at 340 nm was measured again. […] The KM values of variants Ec_llvC^2H10-his6 and Ec_llvC^6E6-his6 were measured and the catalytic efficiencies were calculated. […]

NC(=O)C1=CN([C@@H]2O[C@H](COP(=O)(O)OP(=O)(O)OC[C@H]3O[C@@H](n4cnc5c(N)ncnc54)[C@H](O)[C@@H]3O)[C@@H](O)[C@H]2O)C=CC1 [NADH, nicotinamide adenine dinucleotide]
(kcat/KM with NADH)/(kcat/KM of Ec_IlvC^his6 with NADPH) [1]: 28%
kcat/KM ([2]; Example 15, expressed in E. coli BL21(DE3), purified): 74,045 M^−1 * s^−1
activity (in terms of kcat/KM) on NADH compared to wild-type activity on NADPH ([2]; best variant, relative to wild-type with NADPH): 85%
